From patent US20120294803A1, “CXCR4 ANTAGONISTS FOR IMAGING OF CANCER AND INFLAMMATORY DISORDERS” (EMORY UNIVERSITY, priority 2010, published 2012) come the findings set out here.

One data set concerns the target CXCR4 (Homo sapiens, UniProt P61073). Put plainly: Competition binding assay, metastatic 686LN cells with [18F]M508F and increasing nonradioactive [19F]M508F. On the procedure:
To determine whether [^18F]M508F specifically and quantitatively would bind to CXCR4 on the cell surface, we tested this using the metastatic 686LN subclones that are CXCR4-positive in vitro. […] Similarly, a competition assay was used to determine the binding affinity of [^18F]M508F to CXCR4. Metastatic 686LN cells, incubated with a constant amount of [^18F]-M508F and increasing concentrations of nonradioactive [^19F]-M508F for 1 h at ambient temperature, were used in the competition binding assay.

Data set [1] can be described thus: Tissue biodistribution by tissue harvesting and gamma counter in normal mice. The data set is classed as in vivo, C57Black mice. Conditions: 15, 30, 60, 120 min post-injection. On the procedure: To determine the tissue biodistribution of [^18F]M508F using a gamma counter in regular C57Black mice, we harvested animal organs, including blood, at 15 min, 30 min, 60 min, and 120 min post-injection and measured the uptake of radioactivity in various organs [radioactivity (% injected dose)/g] with n=5 per group.
Results are shown in FIG. 2 as average vales +/−SE.

In data set [2] the test system is CXCR4-positive lung metastases. The experiment in a line: MicroPET/CT imaging in lung metastasis of SCCHN animal model. The data set is classed as in vivo, mouse. Conditions: 60 mins post-injection. How it is done:
MicroPET/CT scan images of the lungs were performed to determine whether [^18F]M508F can be used to image CXCR4-positive lung metastases in vivo. These images were obtained 60 minutes post-injection of [^18F]M508F.

The test system of data set [3] is CXCR4-positive orthothopic SCCHN tumors. The experiment in a line: MicroPET imaging in orthotopic SCCHN animal model. The data set is classed as in vivo, mouse. The following applies: 30 mins post-injection. On the procedure: In vivo biodistribution and tumor uptake studies were performed to determine whether [^18F]M508F can be used to image CXCR4-positive tumors in vivo.

In data set [4] the test system is CXCR4-positive immune cells. The experiment in a line: MicroPET/CT imaging of lung inflammation induced by strong-dose radiation. Conditions: 20 Gy irradiation, 60 mins post-injection. The data set is classed as in vivo, mouse. On the procedure:
MicroPET/CT scan images of the lungs were performed to determine whether [^18F]M508F can be used to image lung inflammation induced by the strong-dose radiation therapy in vivo. These images were obtained 60 minutes post-injection of [^18F]M508F.
These images were obtained 60 minutes post-injection of [^18F]M508F.

The subject of the next data set is CXCR4-positive paw edema. Put plainly: MicroPET/CT imaging in edema animal model. The data set is classed as in vivo, mice. Conditions: 30 mins post-injection. On the procedure:
In vivo biodistribution studies were performed to determine whether [^18F]M508F can be used to image CXCR4-positive inflammation in vivo.

CXCR4, sequence (P61073 whole entry, species assumed): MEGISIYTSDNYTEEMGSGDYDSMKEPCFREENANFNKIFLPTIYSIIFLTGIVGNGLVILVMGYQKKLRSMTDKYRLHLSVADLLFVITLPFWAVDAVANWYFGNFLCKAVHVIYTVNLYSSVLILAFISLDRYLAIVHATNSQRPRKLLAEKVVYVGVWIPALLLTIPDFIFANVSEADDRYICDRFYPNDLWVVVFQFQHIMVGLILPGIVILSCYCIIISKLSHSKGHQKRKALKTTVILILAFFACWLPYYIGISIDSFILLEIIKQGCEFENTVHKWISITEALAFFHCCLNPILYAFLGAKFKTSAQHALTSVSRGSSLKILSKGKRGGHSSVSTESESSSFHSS

As to `Fc1cnc([18F])nc1NCc1ccc(CNc2ccnc(NCCN3CCOCC3)n2)cc1` [[^18F]M508F, N4-(4((2-^18-fluoro,5-fluoropyrimidin-4-ylamino)methyl)benzyl)-N2-(2-morpholinoethyl)pyrimidine-2,4-diamine], the “binding affinity better than 64Cu-AMD3100” value on CXCR4 (1.85 μM compared with […]) is reported as “over 50 times”. In addition, the Kd on CXCR4 (metastatic 686LN cells, 1 h at ambient temperature, competition with nonradioactive [19F]-M508F, read-out: binding affinity for CXCR4) was 1.85 µM. Also, in data set [1], the “accumulation in the liver” value is listed as “anomalous specific accumulation in the liver”; the “blood and muscle clearance” value was “fast blood and muscle clearance”; the clearance pathway entry was “renal clearance pathway”. In addition, in data set [2], the “uptake of tracer by metastatic SCCHN tumors in lung (PET/CT)” value is “significant uptake”. The “tumor uptake of tracer (PET)” value in data set [3] is on record as “significant uptake”. For the same compound, the “crossing of the blood-brain-barrier” value in data set [3] (PET sagittal image) is given as “does not cross the blood-brain-barrier”. In addition, the “uptake of tracer by CXCR4-positive immune cells in lung inflammation (PET/CT)” value in data set [4] is “significant uptake”. Besides, the “uptake of tracer in paw edema (PET)” value in the data set with CXCR4-positive paw edema was “significant uptake”.
